The target of one assay is SNX27 PDZ (Homo sapiens, UniProt Q96L92). Put plainly: Holdup assay. The class given is binding.
For a further assay, the target named is DLG1_1 PDZ (Homo sapiens, UniProt Q12959). Put plainly: Holdup assay. The format is binding.
A further assay deals with T1, SCRIB2 PDZ (Homo sapiens, UniProt Q14160).
T1 sequence (Q14160 862-950 limits assumed): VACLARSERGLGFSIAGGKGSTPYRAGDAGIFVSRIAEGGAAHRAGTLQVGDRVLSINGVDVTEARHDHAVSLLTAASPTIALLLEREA
Put plainly: Holdup assay. The class given is binding.

For a further assay, the target named is DLG1_2 PDZ (Homo sapiens, UniProt Q12959). Put plainly: Holdup assay. The class given is binding.
Another assay deals with T2, TX1BP3 PDZ (Homo sapiens, UniProt O14907).
T2 sequence (O14907 15-112 limits assumed): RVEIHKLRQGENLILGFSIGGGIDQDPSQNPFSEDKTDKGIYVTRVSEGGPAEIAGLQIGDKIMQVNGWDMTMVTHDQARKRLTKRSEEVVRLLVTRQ
Put plainly: Holdup assay. The format is binding.

The next assay has as its target SCRIB_1 PDZ (Homo sapiens, UniProt Q14160). Put plainly: Holdup assay. The class given is binding.
The target in another assay is Htra2. The following applies: SPR; ref Murwantoko et al 2004; cited from earlier work. From the text:
(§1) Supplement 41467_2022_33018_MOESM4_ESM.xlsx, sheet "reference DMI interactome" | column: Affinity (mM); pKd, measured in literature

The target in the next assay is Htra1. The note with it: SPR; ref Murwantoko et al 2004; cited from earlier work.
Description: as §1
On the technique in general: SPR reads the build-up and loss of mass on a sensor chip optically.

For a further assay, the system named is HEK293T cells. Nature of the assay: Label-free MS proteome of stable cell lines expressing HPV16 E6 or E6ΔPBM. The format is cell-based, human. The following applies: protein level. As for the experimental part:
HEK293T and HeLa cells were authenticated and found 100% identity to ATCC cat. CRL-3216 and ATCC cat. CCL-2, respectively. Jurkat and HaCat cell lines were not authenticated (original source: ECACC and Deutsches Krebsforschungszentrum DKFZ, respectively). HeLa cells were grown in DMEM (1 g/L glucose, Gibco) medium completed with 5% FCS and 40 μg/mL gentamicin, diluted every 3rd/4th day 1/10. HaCat cells were grown in DMEM (1 g/L glucose, Gibco) medium completed with 10% FCS and 40 μg/mL gentamicin, diluted every 3rd/4th day 1/4. Jurkat cells were grown in RPMI (Gibco) medium completed with 10% FCS and 40 μg/mL gentamicin, diluted every 3rd/4th day 1/12. All cells were kept at 37 °C and 5% CO2. For proteomics analyses cells were seeded on T-175 flasks. After they reached confluency, adherent cells were washed with PBS once and collected by scraping with ice-cold lysis buffer (Hepes-KOH pH 7.5 50 mM, NaCl 150 mM, Triton X-100 1%, complete EDTA-free protease inhibitor cocktail 1×, EDTA 2 mM, TCEP 5 mM, glycerol 10%). Jurkat cells were collected by 1000 g × centrifugation, washed once with PBS, then collected by 1000 g × 5 min centrifugation again and lysed in ice-cold lysis buffer. Lysates were sonicated 4 × 20 s with 1 s long pulses on ice, then incubated rotating at 4 °C for 30 min. Lysates were centrifuged at 12,000 rpm 4 °C for 20 min and supernatant was kept for further analysis. Concentration determination was carried out by standard Bradford method (Bio-Rad Protein Assay Dye Reagent #5000006) using BSA (MP BIomedicals #160069) as control on a Bio-Rad SmartSpec 3000 spectrophotometer instrument.
The samples were precipitated with TCA 20% overnight at 4 °C and centrifuged at 14,000 rpm for 10 min at 4 °C. The protein pellets were washed twice with 1 mL cold acetone and air dried. The protein extracts were solubilized in urea 8 M, reduced with 5 mM TCEP for 30 min, and alkylated with 10 mM iodoacetamide for 30 min in the dark. Double digestion was performed at 37 °C with 500 ng endoproteinase Lys-C for 4 h, followed by fourfold dilution and an overnight digestion with 500 ng trypsin. Peptide mixtures were then desalted on C18 spin-column and dried on Speed-Vacuum.
Samples were analyzed using an Ultimate 3000 nano-RSLC (Thermo Scientific, San Jose California) coupled in line with a LTQ-Orbitrap ELITE mass spectrometer via a nano-electrospray ionization source (Thermo Scientific, San Jose California). Peptide mixtures were injected in 0.1% TFA on a C18 Acclaim PepMap100 trap-column (75 µm ID × 2 cm, 3 µm, 100 Å, Thermo Fisher Scientific) for 3 min at 5 µL/min with 2% ACN, 0.1% FA in H2O and then separated on a C18 Accucore nano-column (75 µm ID × 50 cm, 2.6 µm, 150 Å, Thermo Fisher Scientific) at 220 nl/min and 38 °C with a 90 min linear gradient from 5% to 30% buffer B (A: 0.1% FA in H2O/B: 99% ACN, 0.1% FA in H2O), regeneration at 5% B. The mass spectrometer was operated in positive ionization mode, in data-dependent mode with survey scans from m/z 350–1500 acquired in the Orbitrap at a resolution of 120,000 at m/z 400. The 20 most intense peaks from survey scans were selected for further fragmentation in the Linear Ion Trap with an isolation window of 2.0 Da and were fragmented by CID with normalized collision energy of 35%. (TOP20CID method) Unassigned and single charged states were excluded from fragmentation. The Ion Target Value for the survey scans (in the Orbitrap) and the MS2 mode (in the Linear Ion Trap) were set to 1E6 and 5E3 respectively and the maximum injection time was set to 100 ms for both scan modes. Dynamic exclusion was set to 20 s after one repeat count with mass width at ±10 ppm.
Proteins were identified by database searching using SequestHT (Thermo Fisher Scientific) with Proteome Discoverer 2.4 software (PD2.4, Thermo Fisher Scientific) on human FASTA database downloaded from SwissProt (reviewed, release 2020_11_27, 20304 entries, https://www.uniprot.org/). […]

In the next assay the target is T3, SYNJ2BP PDZ (Homo sapiens, UniProt P57105).
T3 sequence (P57105 13-100 limits assumed): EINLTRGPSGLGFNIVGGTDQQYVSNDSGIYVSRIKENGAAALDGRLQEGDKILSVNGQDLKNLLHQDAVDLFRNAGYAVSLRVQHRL
Put plainly: Holdup assay. The format is binding.

For another assay, the target named is T4, MAST2 PDZ (Homo sapiens, UniProt Q6P0Q8).
T4 sequence (Q6P0Q8 1104-1192 limits assumed): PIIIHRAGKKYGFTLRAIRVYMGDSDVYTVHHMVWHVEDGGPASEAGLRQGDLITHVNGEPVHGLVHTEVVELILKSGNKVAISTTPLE
Put plainly: biochemical. The class given is binding.

[1] abbreviates: holdup affinity of the PBM peptide of the named protein, sheet PBMcomplexome, lower sub-table.
The mark [2] stands for this setting: holdup affinity of the PBM peptide of the named protein, sheet PBMcomplexome, lower sub-table, 3.5 appears to be the floor for no detectable binding, read-out: affinity of PBM to DLG1_2 (pKd) (converted).
Where [3] appears, read: holdup affinity of the PBM peptide of the named protein, sheet PBMcomplexome, lower sub-table, 3.5 appears to be the floor for no detectable binding, read-out: affinity of PBM to TX1BP3 (pKd) (converted).
[4] abbreviates: holdup affinity of the PBM peptide of the named protein, sheet PBMcomplexome, lower sub-table, 3.5 appears to be the floor for no detectable binding, read-out: affinity of PBM to SCRIB_1 (pKd) (converted).
Setting [5] is: PBM motif of the named protein vs DLG1_1 PDZ, read-out: pKd values – domain-motif, DLG1_1 (converted).
The mark [6] stands for this setting: PBM motif of the named protein vs SCRIB_2 PDZ, read-out: pKd values – domain-motif, SCRIB_2 (converted).
Where [7] appears, read: PBM motif of the named protein vs DLG1_2 PDZ, read-out: pKd values – domain-motif, DLG1_2 (converted).
The mark [8] stands for this setting: PBM motif of the named protein vs TX1BP3 PDZ, read-out: pKd values – domain-motif, TX1BP3 (converted).
Where [9] appears, read: PBM motif of the named protein vs SCRIB_1 PDZ, read-out: pKd values – domain-motif, SCRIB_1 (converted).

Like-named read-outs stand apart in the source and are kept apart here. Ends that are not written are not given here.

SCRIB_1 PDZ, sequence (Q14160 728-815 limits assumed): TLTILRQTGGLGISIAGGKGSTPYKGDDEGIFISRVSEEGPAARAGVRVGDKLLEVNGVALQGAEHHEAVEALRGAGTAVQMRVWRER

As to DDENIRTSDV [PLEKHA2], the Kd on SNX27 PDZ (setting [1]) was 14.5 µM; on DLG1_1 PDZ (holdup affinity of the PBM peptide of the named protein, sheet PBMcomplexome, lower sub-table, 3.5 appears to be the floor for no detectable binding, read-out: affinity of PBM to DLG1_1 (pKd) (converted)), 158 µM; on SCRIB2 PDZ (holdup affinity of the PBM peptide of the named protein, sheet PBMcomplexome, lower sub-table, 3.5 appears to be the floor for no detectable binding, read-out: affinity of PBM to SCRIB_2 (pKd) (converted)) it was 178 µM; on DLG1_2 PDZ (setting [2]), 34.7 µM; on TX1BP3 PDZ (setting [3]), 17.8 µM; on SCRIB_1 PDZ (setting [4]), 178 µM.
On SNX27 PDZ (setting [1]), EKPIDSETKM [SLC1A3] had a Kd of 6.61 µM.
Turning to QGLAERISVL [PRKD2], the Kd at SNX27 PDZ (setting [1]) was 16.6 µM; at DLG1_2 PDZ (setting [2]), 214 µM; at TX1BP3 PDZ (setting [3]), 41.7 µM; on SCRIB_1 PDZ (setting [4]), 170 µM.
In the case of KKKKGQYYFV [HtrA2-Opt], the figures for the “pKd, measured in literature” value at Htra2 and on Htra1 were 7.7167 and 8.42, respectively.
With LDSQIQETSI [MAP4], the Kd at SNX27 PDZ is 1.86 µM; at DLG1_1 PDZ (setting [5]), 229 µM; on SCRIB2 PDZ (setting [6]), 35.5 µM; at DLG1_2 PDZ (setting [7]) it was 42.7 µM; at TX1BP3 PDZ (setting [8]), 110 µM; at SCRIB_1 PDZ (setting [9]), 2.75 µM.
Consider TSQESEDTYL [TBC1D10A], for which the values for the Kd at SNX27 PDZ (setting [1]) and on SCRIB_1 PDZ (setting [4]) were 5.37 µM and 102 µM, respectively.
For the molecule TBCD, in the assay with HEK293T cells (E6 cell line vs control), the “Difference log2 E6/Ctrl” value is given as 0.5689 and the “Ratio E6/Ctrl” value is given as 1.483. In addition, in the assay on HEK293T cells (dPBM cell line vs E6 cell line), the “Difference log2 dPBM/E6” value is -3.03 and the “Ratio dPBM/E6” value stood at 0.1225. Besides, in the assay on HEK293T cells (dPBM cell line vs control), the “Difference log2 dPBM/Ctrl” value is reported as -2.461 and the “Ratio dPBM/Ctrl” value was determined as 0.1817.
DTKNYKQTSV [CRIPT]: the Kd on SNX27 PDZ is 4.68 µM; on DLG1_1 PDZ (setting [5]) it was 44.7 µM; at SCRIB2 PDZ (setting [6]), 24.5 µM; on DLG1_2 PDZ (setting [7]), 8.51 µM; on TX1BP3 PDZ (setting [8]), 3.98 µM; on SCRIB_1 PDZ (setting [9]), 13.2 µM.
Regarding FHPLGADSQV [SLC2A1], the Kd on SNX27 PDZ is 89.1 µM; on DLG1_2 PDZ (setting [7]) it was 132 µM; at TX1BP3 PDZ (setting [8]), 170 µM; at SCRIB_1 PDZ (setting [9]), 95.5 µM.
In turn, PPRQRSETQV [HPV82E6] gave a Kd at SYNJ2BP PDZ of 13.7 µM.
As for EVVHTPETSV [SLC16A3], the Kd at SNX27 PDZ is 7.08 µM; on DLG1_1 PDZ (setting [5]), 135 µM; at SCRIB2 PDZ (setting [6]) it was 33.1 µM; at DLG1_2 PDZ (setting [7]), 50.1 µM; on TX1BP3 PDZ (setting [8]) it was 145 µM; on SCRIB_1 PDZ (setting [9]), 8.32 µM.
With QSARYRDTEL [TJP2 (ZO2)], the Kd on SNX27 PDZ was 20.4 µM; on DLG1_1 PDZ (setting [5]) it was 209 µM; at SCRIB2 PDZ (setting [6]), 126 µM; at DLG1_2 PDZ (setting [7]) it was 170 µM; on TX1BP3 PDZ (setting [8]), 17.4 µM; at SCRIB_1 PDZ (setting [9]), 34.7 µM.
In the case of `CC(C)C[C@H](NC(=O)[C@H](CC(=O)O)NC(=O)[C@@H]1CCCN1C(=O)[C@@H](NC(=O)CNC(=O)[C@H](CCC(=O)O)NC(=O)[C@H](CO)NC(=O)[C@H](CO)NC(=O)[C@H](CC(N)=O)NC(=O)[C@H](CC(C)C)NC(=O)[C@@H](N)CC(N)=O)C(C)C)C(=O)N[C@@H](CC(C)C)C(=O)N[C@H](C(=O)O)C(C)C` [SARS-CoV-E], the Kd at MAST2 PDZ is 253 µM.

Source of the values: article PMC9482650, “Quantitative fragmentomics allow affinity mapping of interactomes” (Nature Communications, 2022).
